Consider 5 molecules from US5324725A, “7-fused 2-(piperazinoalkyl) indole derivatives, intermediates and compositions thereof” (Kali-Chemie Pharma GmbH, priority 1991, dated 1994).

Data set [1] relates to Histamine-induced anaphylactoid reactions. As to the kind of experiment: Inhibition of anaphylactoid cutaneous reaction induced by histamine. It counts as in vivo, rat (Sprague-Dawley). To be noted: Rattus norvegicus, 1 h; rats, 2 × 10^-5 mol/kg p.o., one hour before challenge; histamine intradermal. The method in brief: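 Animals received 50 μl intradermal histamine (0.8 mg/ml in saline) in the flank opposite the antiserum site, just before i.v. ovalbumin plus blue dye. Test substance at 2×10^-5 mol/kg was given orally 1 h before challenge in water with 1% DMF and 1% Tween 20. Blue-dye exudation was scored visually at 30 min, giving % inhibition versus solvent controls.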

Data set [2] is described as follows: Determination of the minimum toxic dose. Also on record: species or system male mice. The note with it: mouse, in vivo, po, 300 mg/kg, 1440 min. The method, then: 2. Determination of the minimum toxic dose.
Maximum doses of 300 mg/kg of the test substance were administered orally to male mice weighing 20-25 g. The animals were observed carefully for 3 hours for toxicity symptoms. In addition, all symptoms and deaths over a period of 24 hours after administration were recorded. Associated symptoms were also observed and recorded. If death or severe toxic symptoms were observed, further mice were administered increasingly lower doses. The lowest dose which caused death or severe toxic symptoms is given as the minimum toxic dose in the following Table B.

`Cc1ccnc(N2CCN(CCc3c(C)n4c5c(ccc(Cl)c35)OCC4)CC2)c1` [Example 35]: in data set [1], the inhibition in vivo at 20 µmol/kg was 58%. In addition, in data set [2], the “Minimum toxic dose (lowest dose which caused death or severe toxic symptoms)” value (“Minimum toxic dose” below) worked out at 300 mg/kg.
Regarding `Cc1ccc(N2CCN(CCc3c(C)n4c5c(cccc35)CCC4)CC2)nc1` [Example 42], in data set [1], the inhibition in vivo at 20 µmol/kg worked out at 45%. The “Minimum toxic dose” value in data set [2] was found to be 100 mg/kg.
The matching figures for `Cc1ccnc(N2CCN(CCc3c(C)n4c5c(cc(C)cc35)CCC4)CC2)c1` [Example 54]: 73% and 300 mg/kg.
The matching figures for `Cc1cc2c3c(c1)c(CCN1CCC(C(=O)c4ccc(F)cc4)CC1)c(C)n3CCC2` [Example 55]: 50% and 300 mg/kg.
`Cc1ccnc(N2CCN(CCc3c(C)n4c5c(cccc35)C(C)CC4)CC2)c1` (stereo not shown) [Example 57] yielded an inhibition in vivo at 20 µmol/kg in data set [1] of 95%. Further, the “Minimum toxic dose” value in data set [2] was found to be 300 mg/kg.
